Results taken from PubChem BioAssay (NCI).
Values joined by “and” are separate entries in the source; they are usually repeats but may differ in a detail not shown here. Identical values can stand only once.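 Compound exposure: 48 hours, 5 concentrations, 96-well plates. The concentration for 50% growth inhibition is given as GI50. TGI is the concentration that stops growth completely.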

Assays:
Test in all cases: NCI tumour cell line growth inhibition, 48 h
[1] = system: A549 NSCLC
[2] = system: NCI-H23 lung
[3] = system: NCI-H460 lung
[4] = system: OVCAR-8 ovarian
[5] = system: RXF 393 renal
[6] = system: SF-295 CNS
[7] = system: SK-OV-3 ovarian
[8] = system: SNB-19 CNS
[9] = system: UACC-62 melanoma
[10] = system: BT-549 breast
[11] = system: PC-3 prostate

SMILES	TGI [1]	TGI [2] [µM]	TGI [3] [µM]	TGI [4] [µM]	TGI [5] [µM]	TGI [6] [µM]	TGI [7]	TGI [8]	TGI [9] [µM]	TGI [10] [µM]	TGI [11] [µM]	GI50 [8] [µM]
COC(=O)[C@@H]1c2cc3c(c(O)c2[C@@H](OC)C[C@@]1(C)O)C(=O)c1c(O)cc2c(c1C3=O)OC1O[C@@]2(C)[C@H](O)[C@@H](N(C)C)[C@@H]1O	1.45 µM	1.49	0.488	2.05	1.37	0.97	3.94 µM	2.37 µM	0.534			
Nc1nc2c(ncn2CCOC(c2ccccc2)P(=O)(O)O)c(=O)[nH]1 (configuration not stated)	> 100 µM	> 100	> 100	> 100	> 100	> 100	> 100 µM	> 100 µM	> 100			
OCCSCCCSCCO	> 100 µM	> 100	> 100	> 100		> 100	> 100 µM	> 100 µM	> 100	> 100	> 100	
OC(c1cccs1)c1cc2ccccc2s1 (configuration not stated)	> 10 µM	> 10	> 10	> 10	> 10	> 10	> 10 µM	> 10 µM	> 10		> 10	
C=CC1OC(CCCOC(=O)C(C)(C)C)O[C@@H]1CC (some centres not stated)	> 100 µM	> 100	> 100	> 100		> 100	> 100 µM	> 100 µM	> 100		> 100	
CN(C)CCNCc1c2ccccc2c(CNCCN(C)C)c2ccccc12	> 59.9 µM	> 100	> 100	> 100	62.7	> 100	42.5 µM		> 61.6			
COC(=O)C1=NN2c3ccccc3C(=O)OCCC2C1 (configuration not stated)	> 100 µM	> 100	> 100	> 100	> 100	> 100	> 100 µM		> 100	> 100	> 100	
O=[N+]([O-])CC(SCc1ccccc1)c1ccc2c(c1)OCO2 (configuration not stated)	21.8 µM	17.5	37.9	19.2	3.63	23.1	28.6 µM	28 µM	25.2		33.1	
Cc1cc2c(c3oc(C(O)(CO)C4CO4)cc(=O)c13)C(=O)c1c(O)cccc1C2=O (configuration not stated)	0.0139 µM and 0.0213 µM and 0.0606 µM		0.00012		0.00254	0.00094	0.00671 µM and 0.00173 µM	0.00442 µM and 0.00494 µM	0.00293	0.000438		0.000231
CC(=O)Oc1ccn2nc(C)c(Br)c2c1Br	57.6 µM	34.8	53.1	> 83.7		> 89.3		> 100 µM	37.5	60.2	43.7	
O=[N+]([O-])c1ccc(Cl)cc1C1ON=C(c2ccccc2)N1C12CC3CC(CC(C3)C1)C2 (configuration not stated)	> 100 µM	> 100	> 100		> 100	> 100	> 100 µM	> 100 µM	> 100		> 100	
